Results taken from ChEMBL document CHEMBL2440076, “New triarylpyrazoles as broad-spectrum anticancer agents: design, synthesis, and biological evaluation” (Eur J Med Chem, 2013).

Key:
MCF7 = test: Growth inhibition of human MCF7 cells assessed as cell growth at 10 uM after 48 hrs by sulforhodamine B assay; format: functional; conditions: MCF7, 48 h, read-out: Activity
UO-31 = test: Growth inhibition of human UO31 cells assessed as cell growth at 10 uM after 48 hrs by sulforhodamine B assay; format: functional; conditions: UO-31, 48 h, read-out: Activity
SW-620 [1] = test: Growth inhibition of human SW620 cells after 48 hrs by sulforhodamine B assay; format: functional; conditions: SW-620, 48 h
HCT-15 = test: Growth inhibition of human HCT15 cells after 48 hrs by sulforhodamine B assay; format: functional; conditions: HCT-15, 48 h
[2] = Growth inhibition of human HCC2998 cells after 48 hrs by sulforhodamine B assay; format: functional; conditions: HCC 2998, 48 h
NCI-H460 = test: Growth inhibition of human NCI-H460 cells after 48 hrs by sulforhodamine B assay; format: functional; conditions: NCI-H460, 48 h
HOP-92 [3] = test: Growth inhibition of human HOP92 cells after 48 hrs by sulforhodamine B assay; format: functional, cell-based; conditions: HOP-92, 48 h
A549 = test: Growth inhibition of human A549/ATCC cells after 48 hrs by sulforhodamine B assay; format: functional; conditions: A549, 48 h
RPMI-8226 = test: Growth inhibition of human RPMI8226 cells after 48 hrs by sulforhodamine B assay; format: functional, cell-based; conditions: RPMI-8226, 48 h
K562 = test: Growth inhibition of human K562 cells after 48 hrs by sulforhodamine B assay; format: functional; conditions: K562, 48 h
ACHN = test: Growth inhibition of human ACHN cells assessed as cell growth at 10 uM after 48 hrs by sulforhodamine B assay; format: functional; conditions: read-out: Activity
SK-OV-3 = test: Growth inhibition of human SKOV3 cells assessed as cell growth at 10 uM after 48 hrs by sulforhodamine B assay; format: functional; conditions: SK-OV-3, 48 h, read-out: Activity
[4] = Growth inhibition of human NCI-ADR-RES cells assessed as cell growth at 10 uM after 48 hrs by sulforhodamine B assay; format: functional; conditions: read-out: Activity
OVCAR-4 = test: Growth inhibition of human OVCAR4 cells assessed as cell growth at 10 uM after 48 hrs by sulforhodamine B assay; format: functional; conditions: OVCAR-4, 48 h, read-out: Activity
OVCAR-3 [5] = test: Growth inhibition of human OVCAR3 cells assessed as cell growth at 10 uM after 48 hrs by sulforhodamine B assay; format: functional; conditions: OVCAR-3, 48 h, read-out: Activity
UACC-62 = test: Growth inhibition of human UACC62 cells assessed as cell growth at 10 uM after 48 hrs by sulforhodamine B assay; format: functional; conditions: UACC-62, 48 h, read-out: Activity
IGROV-1 = test: Growth inhibition of human IGROV1 cells assessed as cell growth at 10 uM after 48 hrs by sulforhodamine B assay; format: functional; conditions: IGROV-1, 48 h, read-out: Activity
SK-MEL-28 = test: Growth inhibition of human SK-MEL-28 cells assessed as cell growth at 10 uM after 48 hrs by sulforhodamine B assay; format: functional; conditions: SK-MEL-28, 48 h, read-out: Activity
SNB-19 = test: Growth inhibition of human SNB19 cells assessed as cell growth at 10 uM after 48 hrs by sulforhodamine B assay; format: functional; conditions: SNB-19, 48 h, read-out: Activity
SF-539 = test: Growth inhibition of human SF539 cells assessed as cell growth at 10 uM after 48 hrs by sulforhodamine B assay; format: functional; conditions: SF-539, 48 h, read-out: Activity
SW-620 [6] = test: Growth inhibition of human SW620 cells assessed as cell growth at 10 uM after 48 hrs by sulforhodamine B assay; format: functional; conditions: SW-620, 48 h, read-out: Activity
NCI-H522 = test: Growth inhibition of human NCI-H522 cells assessed as cell growth at 10 uM after 48 hrs by sulforhodamine B assay; format: functional; conditions: NCI-H522, 48 h, read-out: Activity
HOP-92 [7] = test: Growth inhibition of human HOP92 cells assessed as cell growth at 10 uM after 48 hrs by sulforhodamine B assay; format: functional; conditions: HOP-92, 48 h, read-out: Activity
T47D = test: Growth inhibition of human T47D cells after 48 hrs by sulforhodamine B assay; format: functional
[8] = Growth inhibition of human Hs 578T cells after 48 hrs by sulforhodamine B assay; format: functional
MDA-MB-231 = test: Growth inhibition of human MDA-MB-231 cells after 48 hrs by sulforhodamine B assay; format: functional; conditions: MDA-MB-231, 48 h
TK-10 = test: Growth inhibition of human TK10 cells after 48 hrs by sulforhodamine B assay; format: functional; conditions: TK-10, 48 h
CAKI-1 = test: Growth inhibition of human CAKI-1 cells after 48 hrs by sulforhodamine B assay; format: functional; conditions: CAKI-1, 48 h
A498 = test: Growth inhibition of human A498 cells after 48 hrs by sulforhodamine B assay; format: functional, cell-based; conditions: A498, 48 h
[9] = Growth inhibition of human NCI-ADR-RES cells after 48 hrs by sulforhodamine B assay; format: functional
OVCAR-3 [10] = test: Growth inhibition of human OVCAR3 cells after 48 hrs by sulforhodamine B assay; format: functional, cell-based; conditions: OVCAR-3, 48 h
Malme-3M = test: Growth inhibition of human MALME-3M cells after 48 hrs by sulforhodamine B assay; format: functional
SNB-75 = test: Growth inhibition of human SNB75 cells after 48 hrs by sulforhodamine B assay; format: functional; conditions: SNB-75, 48 h
HL-60(TB) = test: Growth inhibition of human HL-60(TB) cells assessed as cell growth at 10 uM after 48 hrs by sulforhodamine B assay; format: functional; conditions: HL-60, 48 h, read-out: Activity
[11] = read-out: LC50 (the source's name)

O=C(Nc1cccc(-n2cc(-c3ccncc3)c(-c3ccc(Cl)c(O)c3)n2)c1)Nc1ccc(Cl)c(Cl)c1
growth at 10 µM (MCF7): 5.74%
growth at 10 µM (UO-31): 21%
GI50 (SW-620 [1]): 1.46 µM
TGI (SW-620 [1]): > 32.5 µM
CC50 (SW-620 [1]; [11]): > 32.5 µM
GI50 (HCT-15): 1.23 µM
LC50 (HCT-15): > 32.5 µM
TGI (HCT-15): 29.6 µM
GI50 [2]: 2.89 µM
TGI [2]: 13.9 µM
CC50 [2, 11]: > 32.5 µM
GI50 (NCI-H460): 0.993 µM
LC50 (NCI-H460): 24.2 µM
TGI (NCI-H460): 3.57 µM
GI50 (HOP-92 [3]): 0.679 µM
IC50 (HOP-92 [3]): 0.68 µM
LC50 (HOP-92 [3]): > 32.5 µM
TGI (HOP-92 [3]): 1.91 µM
GI50 (A549): 1.01 µM
LC50 (concentration killing 50% of starting cells) (A549): > 32.5 µM
TGI (A549): > 32.5 µM
GI50 (RPMI-8226): 1.03 µM
IC50 (RPMI-8226): 1.03 µM
TGI (RPMI-8226): > 32.5 µM
CC50 (RPMI-8226; [11]): > 32.5 µM
GI50 (K562): 1.41 µM
TGI (K562): > 32.5 µM
CC50 (K562; [11]): > 32.5 µM
growth at 10 µM (ACHN): 12.8%
growth at 10 µM (SK-OV-3): 18.7%
growth at 10 µM [4]: 20.9%
growth at 10 µM (OVCAR-4): 29.4%
growth at 10 µM (OVCAR-3 [5]): -4.74%
growth at 10 µM (UACC-62): 14.9%
growth at 10 µM (IGROV-1): 28.7%
growth at 10 µM (SK-MEL-28): 24.6%
growth at 10 µM (SNB-19): 30.3%
growth at 10 µM (SF-539): 37%
growth at 10 µM (SW-620 [6]): 24.5%
growth at 10 µM (NCI-H522): -6.8%
growth at 10 µM (HOP-92 [7]): -20.2%
GI50 (T47D): 1.55 µM
TGI (T47D): 17.9 µM
CC50 (T47D; [11]): > 32.5 µM
GI50 [8]: 0.785 µM
TGI [8]: 3.15 µM
CC50 [8, 11]: > 32.5 µM
GI50 (MDA-MB-231): 1.18 µM
LC50 (MDA-MB-231): > 32.5 µM
TGI (MDA-MB-231): 8.33 µM
GI50 (TK-10): 1.91 µM
TGI (TK-10): > 32.5 µM
CC50 (TK-10; [11]): > 32.5 µM
GI50 (CAKI-1): 1.11 µM
TGI (CAKI-1): 14.3 µM
CC50 (CAKI-1; [11]): > 32.5 µM
GI50 (A498): 0.94 µM
IC50 (A498): 0.94 µM
TGI (A498): 3.17 µM
CC50 (A498; [11]): > 32.5 µM
GI50 [9]: 2.74 µM
TGI [9]: > 32.5 µM
CC50 [9, 11]: > 32.5 µM
GI50 (OVCAR-3 [10]): 1.05 µM
IC50 (OVCAR-3 [10]): 1.05 µM
TGI (OVCAR-3 [10]): 3.15 µM
CC50 (OVCAR-3 [10]; [11]): > 32.5 µM
GI50 (Malme-3M): 1.19 µM
LC50 (concentration killing 50% of starting cells) (Malme-3M): > 32.5 µM
TGI (Malme-3M): 8.1 µM
GI50 (SNB-75): 1.09 µM
LC50 (lethal concentration, 50% net cell kill) (SNB-75): > 32.5 µM
TGI (SNB-75): 12.2 µM
growth at 10 µM (HL-60(TB)): -6.98%
